# In patent publication US4211772A, “Benzopyran glycoside acetals and ketals” (Laboratoires Sarget, priority 1977, dated 1980):
# Read-outs that look alike come from different tables or passages of the source.
# Experiments:
# [1] = Solubilities in water; type: physicochemical; settings: water; read-out: Solubilities in water
# [2] = target: T1, Aldose Reductase (Bos taurus, UniProt P16116); assay: Inhibition of aldose reductase in vitro (enzyme from beef eye lenses, glyceraldehyde substrate); type: biochemical; settings: in DMF solution, read-out: percentages of inhibition (aldose reductase)
# T1 construct: The enzyme is extracted from beef eye lenses; from tissue; host or cells: beef eye lenses
# Text: Inhibition of Aldose Reductase In Vitro
# The reoxidation of NADPH coupled to the enzymatic reaction was followed spectrophotometrically at 340 nm.
# [3] = tested on: carragenin edema; assay: Anti-inflammatory activity: carragenin edema test; type: in vivo; settings: for % inhibition of carragenin edema: borate buffer pH 7, 24 h; for inhibition in vivo at 35 mg/kg / inhibition in vivo at 40 mg/kg / inhibition in vivo at 75 mg/kg / inhibition in vivo at 100 mg/kg / inhibition in vivo at 200 mg/kg: Rattus norvegicus, ip
# Summary of the method: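 Male Wistar EOPS rats receive 0.1 ml of 5% carragenin suspension in physiological serum into the hind-paw metatarsal muscle, with test substance given i.p. in neutralized solution at the same time. Paw edema is measured by plethysmometry at several times after carragenin and reported as % inhibition against pH-matched physiological serum controls.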
# [4] = tested on: capillary resistance; assay: Capillaroprotecting effects: capillary resistance; type: in vivo, male OFA EOPS rats
# Method: (§1) Capillaroprotecting effects
# The capillary resistance was determined by a variant of the method of Charlier et al, Arch. Inter. Physiol.
# [5] = tested on: capillary permeability; assay: Capillaroprotecting effects: capillary permeability; type: in vivo, conventional male Wistar rats
# Method: as §1
# The capillary permeability was determined by the method of Charlier et al, Arch. Inter. Physiol.
smiles,measurement,setting,value
"C[C@@H]1O[C@@H](OC[C@H]2O[C@@H](Oc3c(-c4ccc(O)c(O)c4)oc4cc(O)cc(O)c4c3=O)[C@H](O)[C@@H](O)[C@@H]2O)[C@@H]2OC3(CCCCC3)O[C@@H]2[C@H]1O [No. 6, 3-O-(2,3-O,O-cyclohexylidene-6-α-L-rhamnosyl-β-D-glucosyl)-quercitin]",solubility,[1],< 100 µg/mL
same,inhibition at 100 µM,[2]; 10^-4 mole/l,93%
same,inhibition at 10 µM,[2]; 10^-5 mole/l,66%
same,inhibition at 1 µM,[2]; 10^-6 mole/l,10%
same,% inhibition of carragenin edema,[3]; 35 mg/kg i.p.,27%
same,% inhibition of carragenin edema,[3]; 75 mg/kg i.p.,21%
same,% inhibition of carragenin edema,[3]; 100 mg/kg i.p.,37%
same,% inhibition of carragenin edema,[3]; 200 mg/kg i.p.,0%
same,inhibition in vivo at 35 mg/kg,"[3]; 1 h, pH 7, read-out: % inhibition of carragenin edema, 35 mg/kg i.p., borate buffer pH 7, 1 h",32%
same,inhibition in vivo at 35 mg/kg,"[3]; 1 h, pH 7, read-out: % inhibition of carragenin edema, 35 mg/kg i.p., borate buffer pH 7, 1 h 1/2",23%
same,inhibition in vivo at 40 mg/kg,"[3]; 1 h, pH 7, read-out: % inhibition of carragenin edema, 40 mg/kg i.p., borate buffer pH 7, 1 h",23%
same,inhibition in vivo at 40 mg/kg,"[3]; 1 h, pH 7, read-out: % inhibition of carragenin edema, 40 mg/kg i.p., borate buffer pH 7, 1 h 1/2",11%
same,inhibition in vivo at 75 mg/kg,"[3]; 1 h, pH 7, read-out: % inhibition of carragenin edema, 75 mg/kg i.p., borate buffer pH 7, 1 h",9%
same,inhibition in vivo at 75 mg/kg,"[3]; 1 h, pH 7, read-out: % inhibition of carragenin edema, 75 mg/kg i.p., borate buffer pH 7, 1 h 1/2",3%
same,inhibition in vivo at 100 mg/kg,"[3]; 1 h, pH 7, read-out: % inhibition of carragenin edema, 100 mg/kg i.p., borate buffer pH 7, 1 h",20%
same,inhibition in vivo at 100 mg/kg,"[3]; 1 h, pH 7, read-out: % inhibition of carragenin edema, 100 mg/kg i.p., borate buffer pH 7, 1 h 1/2",9%
same,inhibition in vivo at 200 mg/kg,"[3]; 1 h, pH 7, read-out: % inhibition of carragenin edema, 200 mg/kg i.p., borate buffer pH 7, 1 h",19%
same,inhibition in vivo at 200 mg/kg,"[3]; 1 h, pH 7, read-out: % inhibition of carragenin edema, 200 mg/kg i.p., borate buffer pH 7, 1 h 1/2",2%
same,inhibition in vivo at 35 mg/kg,"[3]; 2 h, pH 7, read-out: % inhibition of carragenin edema, 35 mg/kg i.p., borate buffer pH 7, 2 h",33%
same,inhibition in vivo at 40 mg/kg,"[3]; 2 h, pH 7, read-out: % inhibition of carragenin edema, 40 mg/kg i.p., borate buffer pH 7, 2 h",7%
same,inhibition in vivo at 75 mg/kg,"[3]; 2 h, pH 7, read-out: % inhibition of carragenin edema, 75 mg/kg i.p., borate buffer pH 7, 2 h",14%
same,inhibition in vivo at 100 mg/kg,"[3]; 2 h, pH 7, read-out: % inhibition of carragenin edema, 100 mg/kg i.p., borate buffer pH 7, 2 h",1%
same,inhibition in vivo at 200 mg/kg,"[3]; 2 h, pH 7, read-out: % inhibition of carragenin edema, 200 mg/kg i.p., borate buffer pH 7, 2 h",4%
same,inhibition in vivo at 35 mg/kg,"[3]; 3 h, pH 7, read-out: % inhibition of carragenin edema, 35 mg/kg i.p., borate buffer pH 7, 3 h",9%
same,inhibition in vivo at 40 mg/kg,"[3]; 3 h, pH 7, read-out: % inhibition of carragenin edema, 40 mg/kg i.p., borate buffer pH 7, 3 h",2%
same,inhibition in vivo at 75 mg/kg,"[3]; 3 h, pH 7, read-out: % inhibition of carragenin edema, 75 mg/kg i.p., borate buffer pH 7, 3 h",17%
same,inhibition in vivo at 100 mg/kg,"[3]; 3 h, pH 7, read-out: % inhibition of carragenin edema, 100 mg/kg i.p., borate buffer pH 7, 3 h",2%
same,inhibition in vivo at 200 mg/kg,"[3]; 3 h, pH 7, read-out: % inhibition of carragenin edema, 200 mg/kg i.p., borate buffer pH 7, 3 h",0%
same,inhibition in vivo at 35 mg/kg,"[3]; 4 h, pH 7, read-out: % inhibition of carragenin edema, 35 mg/kg i.p., borate buffer pH 7, 4 h",7%
same,inhibition in vivo at 40 mg/kg,"[3]; 4 h, pH 7, read-out: % inhibition of carragenin edema, 40 mg/kg i.p., borate buffer pH 7, 4 h",5%
same,inhibition in vivo at 75 mg/kg,"[3]; 4 h, pH 7, read-out: % inhibition of carragenin edema, 75 mg/kg i.p., borate buffer pH 7, 4 h",0%
same,inhibition in vivo at 100 mg/kg,"[3]; 4 h, pH 7, read-out: % inhibition of carragenin edema, 100 mg/kg i.p., borate buffer pH 7, 4 h",10%
same,inhibition in vivo at 200 mg/kg,"[3]; 4 h, pH 7, read-out: % inhibition of carragenin edema, 200 mg/kg i.p., borate buffer pH 7, 4 h",8%
same,inhibition in vivo at 35 mg/kg,"[3]; 5 h, pH 7, read-out: % inhibition of carragenin edema, 35 mg/kg i.p., borate buffer pH 7, 5 h",10%
same,inhibition in vivo at 40 mg/kg,"[3]; 5 h, pH 7, read-out: % inhibition of carragenin edema, 40 mg/kg i.p., borate buffer pH 7, 5 h",2%
same,inhibition in vivo at 75 mg/kg,"[3]; 5 h, pH 7, read-out: % inhibition of carragenin edema, 75 mg/kg i.p., borate buffer pH 7, 5 h",7%
same,inhibition in vivo at 100 mg/kg,"[3]; 5 h, pH 7, read-out: % inhibition of carragenin edema, 100 mg/kg i.p., borate buffer pH 7, 5 h",15%
same,inhibition in vivo at 200 mg/kg,"[3]; 5 h, pH 7, read-out: % inhibition of carragenin edema, 200 mg/kg i.p., borate buffer pH 7, 5 h",9%
same,inhibition in vivo at 35 mg/kg,"[3]; 6 h, pH 7, read-out: % inhibition of carragenin edema, 35 mg/kg i.p., borate buffer pH 7, 6 h",14%
same,inhibition in vivo at 40 mg/kg,"[3]; 6 h, pH 7, read-out: % inhibition of carragenin edema, 40 mg/kg i.p., borate buffer pH 7, 6 h",0%
same,inhibition in vivo at 75 mg/kg,"[3]; 6 h, pH 7, read-out: % inhibition of carragenin edema, 75 mg/kg i.p., borate buffer pH 7, 6 h",13%
same,inhibition in vivo at 100 mg/kg,"[3]; 6 h, pH 7, read-out: % inhibition of carragenin edema, 100 mg/kg i.p., borate buffer pH 7, 6 h",5%
same,inhibition in vivo at 200 mg/kg,"[3]; 6 h, pH 7, read-out: % inhibition of carragenin edema, 200 mg/kg i.p., borate buffer pH 7, 6 h",1%
same,inhibition in vivo at 35 mg/kg,"[3]; read-out: % inhibition of carragenin edema, 35 mg/kg i.p., borate buffer pH 7, 1/2 h",26%
same,inhibition in vivo at 40 mg/kg,"[3]; read-out: % inhibition of carragenin edema, 40 mg/kg i.p., borate buffer pH 7, 1/2 h",28%
same,inhibition in vivo at 75 mg/kg,"[3]; read-out: % inhibition of carragenin edema, 75 mg/kg i.p., borate buffer pH 7, 1/2 h",29%
same,inhibition in vivo at 100 mg/kg,"[3]; read-out: % inhibition of carragenin edema, 100 mg/kg i.p., borate buffer pH 7, 1/2 h",23%
same,inhibition in vivo at 200 mg/kg,"[3]; read-out: % inhibition of carragenin edema, 200 mg/kg i.p., borate buffer pH 7, 1/2 h",14%
same,% of animals for which the effect is ≥ 25 u cm Hg/h,[4]; 50 mg/kg i.p.,30%
same,"capillary resistance, effect observed",[4]; 50 mg/kg i.p.,19.75 ± 10.2 u cm Hg/h
same,% of animals for which the effect is ≥ 25 u cm Hg/h,[4]; 100 mg/kg i.p.,40%
same,"capillary resistance, effect observed",[4]; 100 mg/kg i.p.,25.5 ± 13.2 u cm Hg/h
same,% of animals for which the effect is ≥ 25 u cm Hg/h,[4]; 200 mg/kg i.p.,90%
same,"capillary resistance, effect observed",[4]; 200 mg/kg i.p.,37.75 ± 12.9 u cm Hg/h
same,percentage reduction of capillary permeability,[5]; 50 mg/kg i.p.,21%
same,percentage reduction of capillary permeability,[5]; 100 mg/kg i.p.,20%
same,percentage reduction of capillary permeability,[5]; 200 mg/kg i.p.,23%
